Measurements reported in patent US9469650B2, “Melampomagnolide B derivatives” (BOARD OF TRUSTEES OF THE UNIVERSITY OF ARKANSAS, priority 2013, dated 2016).

Key:
MOLT-4 = assay: panel of 60 human tumor cell lines, growth inhibition (Leukemia); conditions: MOLT-4
LOX IMVI = assay: panel of 60 human tumor cell lines, growth inhibition (Melanoma)
M14 = assay: as above; conditions: M14
SK-MEL-2 = assay: as above; conditions: SK-MEL-2
SK-MEL-28 = assay: as above; conditions: SK-MEL-28
SK-MEL-5 = assay: as above; conditions: 8K-MEL-5
SNB-75 = assay: panel of 60 human tumor cell lines, growth inhibition (CNS Cancer); conditions: SNB-75
HCT-116 = assay: panel of 60 human tumor cell lines, growth inhibition (Colon Cancer); conditions: HCT-116
SW-620 = assay: as above; conditions: SW-620
CAKI-1 = assay: panel of 60 human tumor cell lines, growth inhibition (Renal Cancer); conditions: CAKI-1
SN12C = assay: as above
UO-31 = assay: as above; conditions: UO-31
MCF7 = assay: panel of 60 human tumor cell lines, growth inhibition (Breast Cancer); conditions: MCF7
MDA-MB-231/ATCC = assay: as above; conditions: MDA-MB-231/ATCC
T-47D = assay: as above; conditions: T-47D
OVCAR-3 = assay: panel of 60 human tumor cell lines, growth inhibition (Ovarian Cancer); conditions: OVCAR-3
NCI/ADR-RES = assay: as above
PC-3 = assay: panel of 60 human tumor cell lines, growth inhibition (Prostate Cancer); conditions: PC-3
A549/ATCC = assay: panel of 60 human tumor cell lines, growth inhibition (Non-Small Cell Lung Cancer); conditions: A549/ATCC

SMILES: C=C1C(=O)O[C@H]2[C@H]1CC/C(COC(=O)NC)=C\CC[C@@]1(C)O[C@@H]21 [JVM 2-57]
- Percent Growth (MOLT-4; Log10 Concentration −4.0): −39%
- Percent Growth (MOLT-4; Log10 Concentration −5.0): 8%
- Percent Growth (MOLT-4; Log10 Concentration −6.0): 98%
- Percent Growth (MOLT-4; Log10 Concentration −7.0): 90%
- Percent Growth (MOLT-4; Log10 Concentration −8.0): 97%
- GI50 (MOLT-4; NCI five dose): 3.4 µM
- TGI (MOLT-4; NCI five dose): 1.49E−5
- Percent Growth (LOX IMVI; Log10 Concentration −4.0): −91%
- Percent Growth (LOX IMVI; Log10 Concentration −5.0): 21%
- Percent Growth (LOX IMVI; Log10 Concentration −6.0): 92%
- Percent Growth (LOX IMVI; Log10 Concentration −7.0): 95%
- Percent Growth (LOX IMVI; Log10 Concentration −8.0): 96%
- GI50 (LOX IMVI; NCI five dose): 3.92 µM
- TGI (LOX IMVI; NCI five dose): 1.55E−5
- Percent Growth (M14; Log10 Concentration −4.0): −66%
- Percent Growth (M14; Log10 Concentration −5.0): 27%
- Percent Growth (M14; Log10 Concentration −6.0): 87%
- Percent Growth (M14; Log10 Concentration −7.0): 89%
- Percent Growth (M14; Log10 Concentration −8.0): 99%
- GI50 (M14; NCI five dose): 4.1 µM
- TGI (M14; NCI five dose): 1.93E−5
- Percent Growth (SK-MEL-2; Log10 Concentration −4.0): −70%
- Percent Growth (SK-MEL-2; Log10 Concentration −5.0): 53%
- Percent Growth (SK-MEL-2; Log10 Concentration −6.0): 99%
- Percent Growth (SK-MEL-2; Log10 Concentration −7.0): 99%
- Percent Growth (SK-MEL-2; Log10 Concentration −8.0): 96%
- GI50 (SK-MEL-2; NCI five dose): 10.5 µM
- TGI (SK-MEL-2; NCI five dose): 2.69E−5
- Percent Growth (SK-MEL-28; Log10 Concentration −4.0): −79%
- Percent Growth (SK-MEL-28; Log10 Concentration −5.0): 24%
- Percent Growth (SK-MEL-28; Log10 Concentration −6.0): 91%
- Percent Growth (SK-MEL-28; Log10 Concentration −7.0): 91%
- Percent Growth (SK-MEL-28; Log10 Concentration −8.0): 98%
- GI50 (SK-MEL-28; NCI five dose): 4.11 µM
- TGI (SK-MEL-28; NCI five dose): 1.72E−5
- Percent Growth (SK-MEL-5; Log10 Concentration −4.0): −73%
- Percent Growth (SK-MEL-5; Log10 Concentration −5.0): 56%
- Percent Growth (SK-MEL-5; Log10 Concentration −6.0): 97%
- Percent Growth (SK-MEL-5; Log10 Concentration −7.0): 98%
- Percent Growth (SK-MEL-5; Log10 Concentration −8.0): 100%
- GI50 (SK-MEL-5; NCI five dose): 11.1 µM
- TGI (SK-MEL-5; NCI five dose): 2.70E−5
- Percent Growth (SNB-75; Log10 Concentration −4.0): −41%
- Percent Growth (SNB-75; Log10 Concentration −5.0): 55%
- Percent Growth (SNB-75; Log10 Concentration −6.0): 78%
- Percent Growth (SNB-75; Log10 Concentration −7.0): 76%
- Percent Growth (SNB-75; Log10 Concentration −8.0): 83%
- GI50 (SNB-75; NCI five dose): 11.2 µM
- TGI (SNB-75; NCI five dose): 3.72E−5
- Percent Growth (HCT-116; Log10 Concentration −4.0): −98%
- Percent Growth (HCT-116; Log10 Concentration −5.0): 3%
- Percent Growth (HCT-116; Log10 Concentration −6.0): 88%
- Percent Growth (HCT-116; Log10 Concentration −7.0): 93%
- Percent Growth (HCT-116; Log10 Concentration −8.0): 102%
- GI50 (HCT-116; NCI five dose): 2.8 µM
- TGI (HCT-116; NCI five dose): 1.07E−5
- Percent Growth (SW-620; Log10 Concentration −4.0): −80%
- Percent Growth (SW-620; Log10 Concentration −5.0): 6%
- Percent Growth (SW-620; Log10 Concentration −6.0): 65%
- Percent Growth (SW-620; Log10 Concentration −7.0): 99%
- Percent Growth (SW-620; Log10 Concentration −8.0): 98%
- GI50 (SW-620; NCI five dose): 1.8 µM
- TGI (SW-620; NCI five dose): 1.16E−5
- Percent Growth (CAKI-1; Log10 Concentration −4.0): −97%
- Percent Growth (CAKI-1; Log10 Concentration −5.0): 10%
- Percent Growth (CAKI-1; Log10 Concentration −6.0): 82%
- Percent Growth (CAKI-1; Log10 Concentration −7.0): 89%
- Percent Growth (CAKI-1; Log10 Concentration −8.0): 96%
- GI50 (CAKI-1; NCI five dose): 2.78 µM
- TGI (CAKI-1; NCI five dose): 1.25E−5
- Percent Growth (SN12C; Log10 Concentration −4.0): −59%
- Percent Growth (SN12C; Log10 Concentration −5.0): 28%
- Percent Growth (SN12C; Log10 Concentration −6.0): 93%
- Percent Growth (SN12C; Log10 Concentration −7.0): 97%
- Percent Growth (SN12C; Log10 Concentration −8.0): 96%
- GI50 (SN12C; NCI five dose): 4.57 µM
- TGI (SN12C; NCI five dose): 2.09E−5
- Percent Growth (UO-31; Log10 Concentration −4.0): −93%
- Percent Growth (UO-31; Log10 Concentration −5.0): 7%
- Percent Growth (UO-31; Log10 Concentration −6.0): 82%
- Percent Growth (UO-31; Log10 Concentration −7.0): 88%
- Percent Growth (UO-31; Log10 Concentration −8.0): 84%
- GI50 (UO-31; NCI five dose): 2.63 µM
- TGI (UO-31; NCI five dose): 1.16E−5
- Percent Growth (MCF7; Log10 Concentration −4.0): −75%
- Percent Growth (MCF7; Log10 Concentration −5.0): 4%
- Percent Growth (MCF7; Log10 Concentration −6.0): 83%
- Percent Growth (MCF7; Log10 Concentration −7.0): 88%
- Percent Growth (MCF7; Log10 Concentration −8.0): 94%
- GI50 (MCF7; NCI five dose): 2.61 µM
- TGI (MCF7; NCI five dose): 1.11E−5
- Percent Growth (MDA-MB-231/ATCC; Log10 Concentration −4.0): −77%
- Percent Growth (MDA-MB-231/ATCC; Log10 Concentration −5.0): 31%
- Percent Growth (MDA-MB-231/ATCC; Log10 Concentration −6.0): 86%
- Percent Growth (MDA-MB-231/ATCC; Log10 Concentration −7.0): 89%
- Percent Growth (MDA-MB-231/ATCC; Log10 Concentration −8.0): 106%
- GI50 (MDA-MB-231/ATCC; NCI five dose): 4.48 µM
- TGI (MDA-MB-231/ATCC; NCI five dose): 1.93E−5
- Percent Growth (T-47D; Log10 Concentration −4.0): −80%
- Percent Growth (T-47D; Log10 Concentration −5.0): −4%
- Percent Growth (T-47D; Log10 Concentration −6.0): 81%
- Percent Growth (T-47D; Log10 Concentration −7.0): 86%
- Percent Growth (T-47D; Log10 Concentration −8.0): 94%
- GI50 (T-47D; NCI five dose): 2.32 µM
- TGI (T-47D; NCI five dose): 9.04E−6
- Percent Growth (OVCAR-3; Log10 Concentration −4.0): −100%
- Percent Growth (OVCAR-3; Log10 Concentration −5.0): 7%
- Percent Growth (OVCAR-3; Log10 Concentration −6.0): 86%
- Percent Growth (OVCAR-3; Log10 Concentration −7.0): 100%
- Percent Growth (OVCAR-3; Log10 Concentration −8.0): 99%
- GI50 (OVCAR-3; NCI five dose): 2.87 µM
- TGI (OVCAR-3; NCI five dose): 1.17E−5
- Percent Growth (NCI/ADR-RES; Log10 Concentration −4.0): −27%
- Percent Growth (NCI/ADR-RES; Log10 Concentration −5.0): 60%
- Percent Growth (NCI/ADR-RES; Log10 Concentration −6.0): 99%
- Percent Growth (NCI/ADR-RES; Log10 Concentration −7.0): 101%
- Percent Growth (NCI/ADR-RES; Log10 Concentration −8.0): 95%
- GI50 (NCI/ADR-RES; NCI five dose): 13.1 µM
- TGI (NCI/ADR-RES; NCI five dose): 4.89E−5
- Percent Growth (PC-3; Log10 Concentration −4.0): −70%
- Percent Growth (PC-3; Log10 Concentration −5.0): 67%
- Percent Growth (PC-3; Log10 Concentration −6.0): 96%
- Percent Growth (PC-3; Log10 Concentration −7.0): 97%
- Percent Growth (PC-3; Log10 Concentration −8.0): 98%
- GI50 (PC-3; NCI five dose): 13.3 µM
- TGI (PC-3; NCI five dose): 3.08E−5
- Percent Growth (A549/ATCC; Log10 Concentration −4.0): −88%
- Percent Growth (A549/ATCC; Log10 Concentration −5.0): 71%
- Percent Growth (A549/ATCC; Log10 Concentration −6.0): 95%
- Percent Growth (A549/ATCC; Log10 Concentration −7.0): 99%
- Percent Growth (A549/ATCC; Log10 Concentration −8.0): 100%
- GI50 (A549/ATCC; NCI five dose): 13.5 µM
- TGI (A549/ATCC; NCI five dose): 2.80E−5
